Patent US11945834B2, “Cyclic dinucleotides as anticancer agents” (BRISTOL-MYERS SQUIBB COMPANY, priority 2018, dated 2024)
Where two headings read alike, the source gives them in different places.

Columns and labels:
[1] = tested on: IRF pathway in THP1-Dual cells (STING agonists); test: STING THP1 reporter assay, IRF pathway (Lucia luciferase); type: cell-based; settings: 10% human plasma, luciferase readout, 100% = 100 μM cGAMP, read-out: THP1 Reporter Assays EC50 (μM) IRF3
Description: (§1) THP1-Dual™ cells were derived from the human THP-1 monocyte cell line by stable integration of two inducible reporter constructs. To this end, THP1-Dual™ cells allow the simultaneous study of the NF-κB pathway, by monitoring the activity of SEAP, and the IRF pathway by assessing the activity of a secreted luciferase (Lucia). Both reporter proteins are readily measurable in the cell culture supernatant when using QUANTI-Blue™, a SEAP detection reagent, and QUANTI-Luc™, a luciferase detection reagent.
(§2) THP1-Dual™ cells induce the activation of NF-κB in response to STING agonists. They also trigger the IRF pathway upon stimulation with STING agonists, such as cGAMP. Here, the THP-1-Dual cells were used to assess STING binders for function on the cellular level.
(§3) Serial dilutions of compounds in DMSO were added to low volume 384 well plates at 100 nl/well using an ECHO acoustic dispenser (Labcyte, model 550) to achieve final starting concentration of 100 μM in cell suspension. THP-1 Dual™ STING reporter cells (Invivogen, Dual cells cat #THPD-nfis) were added to the plates with compounds at 15,000 cells in 10 μL per well in RPMI media (Gibco, cat #11875) containing 10% human plasma in a low volume 384-well black wall clear bottom tissue culture plate (Corning, cat #3542) for SEAP assay and low volume solid white plate (Corning, cat #3826) for luciferase assay. One column of the plate was reserved for treatment with cGAMP at 100 μM for 100% activation calculation and one column for no treatment (DMSO only) for baseline activation. Plates were then incubated in 37° C. incubator at 5% CO2 for 20 hours.
(§4) In the SEAP assay, 5 μl of 2× QuantiBlue (Invivogen, cat #Rep-qb2) is added to 384 well black plates seeded with THP1 cells and incubated at 37° C. for 2 hours. Plates were read on the Envision (Perkin Elmer) at 620 nm wavelength (OD620). In the luciferase assay, 5 μl of Quantiluc (Invivogen, Rep-qlc2) is added to white 384 well plates seeded with THP1 cells and read at 5 minutes on the Envision (Perkin Elmer) using a luminescence protocol (RLU). For both cell lines, 100% activation was determined by value (RLU) of THP-1 Dual STING cells stimulated with 100 μM cGAMP (Invivogen, cat #TLRL-NACGA23-5).

[2] = molecular target: T1, STING AQ: His-TVMV-S-hSTING(155-341)-G230A-R293Q (Homo sapiens, UniProt Q86WV6, G230A/H232R/R293Q); test: STING HTRF binding assay, STING AQ; settings: 20 nM His-tagged STING cytoplasmic domain AQ, 40 nM fluorescein-labeled cGAMP analog probe, one hour; read-out: HTRF Binding Assays IC50 (μM) AQ
T1 construct: STING AQ: His-TVMV-S-hSTING(155-341)-G230A-R293Q
T1 sequence (Q86WV6 with tags, fused parts or gaps G230A/H232R/R293Q): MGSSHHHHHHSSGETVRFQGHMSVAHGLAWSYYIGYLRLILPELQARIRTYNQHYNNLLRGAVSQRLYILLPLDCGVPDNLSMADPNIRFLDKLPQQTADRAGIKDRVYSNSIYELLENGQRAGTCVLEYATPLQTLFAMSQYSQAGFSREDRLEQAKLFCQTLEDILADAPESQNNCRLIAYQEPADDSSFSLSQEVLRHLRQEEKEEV
Procedure: (§5) A time resolved FRET-based competition binding assay was used to assess test article binding to STING WT and STING AQ. His-tagged STING cytoplasmic domain (WT or AQ) at a concentration of 20 nM was incubated with 2.5 nM Tb-labeled anti-His antibody, test compound, and fluorescein-labeled cGAMP analog probe (BioLog cat. no. C195) at a concentration of 200 nM (STING WT) or 40 nM (STING AQ) in PBS containing 0.005% Tween-20 and 0.1% BSA for one hour. Fluorescence at 495 nm and 520 nm was measured using an EnVision microplate reader to quantify FRET between Tb-labeled anti-His antibody and fluorescein-labeled probe. Background was defined as the signal obtained in the absence of STING protein, and background subtracted FRET ratios were normalized to the maximum signal obtained in the absence of test compound. These values were converted to a percent inhibition. Percent inhibition was determined for test compounds at 11 concentrations. The IC50, defined as the concentration of competing test compound needed to reduce specific binding of the probe by 50%, was calculated using the 4 parameter logistic equation to fit the data

[3] = tested on: NF-κB pathway in THP1-Dual cells (STING agonists); test: STING THP1 reporter assay, NF-κB pathway (SEAP); type: cell-based; settings: 10% human plasma, SEAP readout, 100% = 100 μM cGAMP, read-out: THP1 Reporter Assays EC50 (μM) NFkB
Description: as §1, §2, §3, §4

[4] = molecular target: T2, STING WT: His-TVMV-S-hSTING(155-341)-H232R (Homo sapiens, UniProt Q86WV6, H232R); test: STING HTRF binding assay, STING WT; settings: 20 nM His-tagged STING cytoplasmic domain WT, 200 nM fluorescein-labeled cGAMP analog probe, one hour; read-out: HTRF Binding Assays IC50 (μM) WT
T2 construct: STING WT: His-TVMV-S-hSTING(155-341)-H232R
T2 sequence (Q86WV6 with tags, fused parts or gaps H232R): as the sequence (Q86WV6 with tags, fused parts or gaps G230A/H232R/R293Q) above, with A99G, Q162R counted along it
Procedure: as §5

| EC50 ([1]; Homo sapiens, THP1-Dual, 20 h) [µM] | IC50 [2] [µM] | EC50 ([3]; Homo sapiens, THP1-Dual, 20 h) [µM] | IC50 [4] [µM] | EC50 ([1]; 20 hours) [µM] | EC50 ([3]; 20 hours) [µM] | SMILES |
| --- | --- | --- | --- | --- | --- | --- |
| 4.94 | 0.01 | 8.05 | 0.09 | – | – | NC(=O)c1cc([C@@H]2O[C@@H]3COP(=O)(S)O[C@H]4[C@@H](F)[C@H](n5cnc6c(N)ncnc65)O[C@@H]4COP(=O)(S)O[C@@H]2[C@@H]3O)ccn1 (single isomer, unassigned) [Example 1-1] |
| > 100 | 0.6 | > 100 | 10.3 | – | – | CNC(=O)c1cc([C@@H]2O[C@@H]3COP(=O)(S)O[C@H]4[C@@H](F)[C@H](n5cnc6c(N)ncnc65)O[C@@H]4COP(=O)(S)O[C@@H]2[C@@H]3O)ccn1 (single isomer, unassigned) [Example 2-1] |
| – | 4.85 | – | 92.3 | > 100 | – | CNC(=O)c1cc([C@@H]2O[C@@H]3COP(=O)(S)O[C@H]4[C@@H](F)[C@H](n5cnc6c(N)ncnc65)O[C@@H]4COP(=O)(S)O[C@@H]2[C@@H]3O)ccn1 (single isomer, unassigned) [Example 2-4] |
| – | 0.04 | – | 0.78 | 9.23 | 22.6 | C=C1[C@H]2OP(=O)(S)OC[C@H]3O[C@@H](n4cnc5c(N)ncnc54)[C@H](F)[C@@H]3OP(=O)(S)OC[C@H]1O[C@H]2c1ccnc(C(N)=O)c1 (single isomer, unassigned) [Example 3-1] |
| – | 1.64 | – | 40.9 | > 100 | > 100 | C=C1[C@H]2OP(=O)(S)OC[C@H]3O[C@@H](n4cnc5c(N)ncnc54)[C@H](F)[C@@H]3OP(=O)(S)OC[C@H]1O[C@H]2c1ccnc(C(N)=O)c1 (single isomer, unassigned) [Example 3-2] |
| – | 1.03 | – | 14.4 | > 100 | > 100 | C=C1[C@H]2OP(=O)(S)OC[C@H]3O[C@@H](n4cnc5c(N)ncnc54)[C@H](F)[C@@H]3OP(=O)(S)OC[C@H]1O[C@H]2c1ccnc(C(N)=O)c1 (single isomer, unassigned) [Example 3-3] |
| – | 0.09 | – | 1.21 | 7.4 | 19.3 | C=C1[C@H]2OP(=O)(S)OC[C@H]3O[C@@H](n4cnc5c(N)ncnc54)[C@H](F)[C@@H]3OP(=O)(S)OC[C@H]1O[C@H]2c1ccnc(C(N)=O)c1 (single isomer, unassigned) [Example 3-4] |
| – | 0.05 | – | 0.66 | 19 | 57.1 | NC(=O)c1cc([C@@H]2O[C@@H]3COP(=O)(S)O[C@H]4[C@@H](F)[C@H](n5cnc6c(N)ncnc65)O[C@@H]4COP(=O)(S)O[C@@H]2[C@@H]3F)ccn1 (single isomer, unassigned) [Example 4-1] |
| – | 0.03 | – | 0.09 | 0.37 | 1.32 | NC(=O)c1cc([C@@H]2O[C@@H]3COP(=O)(S)O[C@H]4[C@@H](F)[C@H](n5cnc6c(N)ncnc65)O[C@@H]4COP(=O)(S)O[C@@H]2[C@@H]3F)ccn1 (single isomer, unassigned) [Example 4-2] |
| 0.14 | 14 | 0.38 | 93.4 | – | – | NC(=O)c1cc([C@@H]2O[C@@H]3COP(=O)(S)O[C@H]4[C@@H](F)[C@H](n5cnc6c5ncn5ccnc65)O[C@@H]4COP(=O)(S)O[C@@H]2[C@@H]3O)ccn1 (single isomer, unassigned) [Example 5-2] |
